Source: patent US20240324594A1, “Method for Controlling Diamide Resistant Pests and Compounds Therefor” (priority 2021, published 2024)

Tested on: Resistant Plutella xylostella R1 (G4946E resistance mutation)
Assay: Resistant Plutella xylostella R1 (Diamond back moth) larvicide L3, feeding/contact
Type: in vivo
Conditions: CTPR used as standard
Procedure: Resistant Plutella xylostella R1 (Diamond back moth) larvicide L3, feeding/contact Chinese cabbage plants were sprayed with diluted test solutions in an application chamber. Cut off leaves were placed into petri dishes with wetted filter paper and infested 1 day after application with 10 L3 multi-resistant Plutella xylostella larvae having the G4946E resistance mutation. Samples were assessed 4 days after infestation for mortality and growth regulation. CTPR was used as standard and a resistance factor of 146 was obtained for this strain.
Plutella xylostella resistant strain R1 originally collected from Taiwan in 2012 that carries the RyR mutation G4946E conferring resistance to diamides. The strain is reared on cabbage plants (Brassica oleracea) and selected approximately every two weeks with chlorantraniliprole.
With CNC(=O)c1cc(Cl)cc(C)c1NC(=O)c1cc(Br)nn1-c1ncccc1Cl [CTPR, chlorantraniliprole] the “resistance factor obtained for strain R1” value was 146.

Tested on: Resistant Plutella xylostella R4 (RyR mutation G4946E)
Assay: Resistant Plutella xylostella R4 (Diamond back moth) larvicide L1, feeding/contact
Type: in vivo
Conditions: CTPR used as standard
Procedure: Resistant Plutella xylostella R4 (Diamond back moth) larvicide L1, feeding/contact 24-well microtiter plates with artificial diet were treated with aqueous test solutions prepared from 10,000 ppm DMSO stock solutions by pipetting. After drying, around 30 Plutella eggs were pipetted through a plastic stencil onto a gel blotting paper and the plate was closed with it. The samples were assessed for mortality in comparison to untreated samples 8 days after infestation. CTPR was used as standard and a resistance factor of 242 was obtained for this strain
Plutella xylostella resistant strain R4 originated in the lab in 2021 from crossing the R1 strain with a lab-reared susceptible P. xylostella strain (SUS). R4 can be reared and tested on artificial diet and also carries the RyR mutation G4946E conferring resistance to diamides. The strain is selected approximately every two weeks with chlorantraniliprole.
With CNC(=O)c1cc(Cl)cc(C)c1NC(=O)c1cc(Br)nn1-c1ncccc1Cl [CTPR, chlorantraniliprole] the “resistance factor obtained for strain R4” value was 242.

Tested on: Plutella xylostella (Diamond back moth) ryanodine receptor, containing the G4946E resistance mutation
Assay: In vitro calcium fluorescence assay (Fluo-8 NW, FDSS) in human embryonic kidney cells expressing the ryanodine receptor
Type: cell-based
Conditions: HEK cells expressing P. xylostella RyR G4946E; EC50 normalized against in-assay reference cyantraniliprole; ratio <=1 means equally or more active
Procedure: Human embryonic kidney cells expressing the Plutella xylostella (Diamond back moth) ryanodine receptor, containing the G4946E resistance mutation, are loaded with Fluo-8 No Wash (NW) calcium-sensitive dye which responds by fluorescence to a change in intracellular calcium (e.g. stimulated by activation of ryanodine receptor). Test compounds are added in 10 rates to a 384-well plate containing dye-loaded cells and the fluorescent signal is measured using the Hamamatsu FDSS (Functional Drug Screening system). Dose-response curves are plotted to estimate the EC50. EC50 are normalized against an in-assay reference standard (cyantraniliprole) to address inter-assay variability. The ratio for a given compound is then obtained by the following formula: REC50=EC50 (compound)/EC50 (cyantraniliprole).
In the case of Cc1cc2c(c(C(=O)NC(C)C)c1NC(=O)c1cc(C(F)(F)F)nn1-c1ncccc1Cl)OC(F)(F)O2 [2-(3-chloro-2-pyridyl)-N-[2,2-difluoro-4-(isopropylcarbamoyl)-6-methyl-1,3-benzodioxol-5-yl]-5-(trifluoromethyl)pyrazole-3-carboxamide], the “REC50 = EC50 (compound)/EC50 (cyantraniliprole)” value (shortened to “REC50 = EC50 (compound)/EC50”) is reported as 7.27.
For CNC(=O)c1c(NC(=O)c2cc(C(F)(F)F)nn2-c2ncccc2Cl)c(C)cc2c1OC(F)(F)O2 [2-(3-chloro-2-pyridyl)-N-[2,2-difluoro-6-methyl-4-(methylcarbamoyl)-1,3-benzodioxol-5-yl]-5-(trifluoromethyl)pyrazole-3-carboxamide], the “REC50 = EC50 (compound)/EC50” value was 4.65.
With CNC(=O)c1c(NC(=O)c2cc(Cn3cc(C(F)(F)F)nn3)nn2-c2ncccc2Cl)c(C)cc2c1OC(F)(F)O2 [2-(3-chloro-2-pyridyl)-N-[2,2-difluoro-6-methyl-4-(methylcarbamoyl)-1,3-benzodioxol-5-yl]-5-[[4-(trifluoromethyl)triazol-1-yl]methyl]pyrazole-3-carboxamide] the “REC50 = EC50 (compound)/EC50” value was 2.55.
For CNC(=O)c1c(NC(=O)c2cc(Cn3ncc(C(F)(F)F)n3)nn2-c2ncccc2Cl)c(C)cc2c1OC(F)(F)O2 [2-(3-chloro-2-pyridyl)-N-[2,2-difluoro-6-methyl-4-(methylcarbamoyl)-1,3-benzodioxol-5-yl]-5-[[4-(trifluoromethyl)triazol-2-yl]methyl]pyrazole-3-carboxamide], the “REC50 = EC50 (compound)/EC50” value was 6.26.
For CNC(=O)c1c(NC(=O)c2cc(Cn3nnc(C(F)(F)F)n3)nn2-c2ncccc2Cl)c(C)cc2c1OC(F)(F)O2 [2-(3-chloro-2-pyridyl)-N-[2,2-difluoro-6-methyl-4-(methylcarbamoyl)-1,3-benzodioxol-5-yl]-5-[[5-(trifluoromethyl)tetrazol-2-yl]methyl]pyrazole-3-carboxamide], the “REC50 = EC50 (compound)/EC50” value was 5.77.
For Cc1cc2c(c(C(N)=O)c1NC(=O)c1cc(C(F)(F)F)nn1-c1ncccc1Cl)OC(F)(F)O2 [Compound P19, N-(4-carbamoyl-2,2-difluoro-6-methyl-1,3-benzodioxol-5-yl)-2-(3-chloro-2-pyridyl)-5-(trifluoromethyl)pyrazole-3-carboxamide], the “REC50 = EC50 (compound)/EC50” value was 0.50.
In the case of Cc1cc2c(c(C(N)=O)c1NC(=O)c1cc(Cn3ncc(C(F)(F)F)n3)nn1-c1ncccc1Cl)OC(F)(F)O2 [Compound P21, N-(4-carbamoyl-2,2-difluoro-6-methyl-1,3-benzodioxol-5-yl)-2-(3-chloro-2-pyridyl)-5-[[4-(trifluoromethyl)triazol-2-yl]methyl]pyrazole-3-carboxamide], the “REC50 = EC50 (compound)/EC50” value is reported as 0.55.
With Cc1cc2c(c(C(N)=O)c1NC(=O)c1cc(Cn3cc(C(F)(F)F)nn3)nn1-c1ncccc1Cl)OC(F)(F)O2 [Compound P22, N-(4-carbamoyl-2,2-difluoro-6-methyl-1,3-benzodioxol-5-yl)-2-(3-chloro-2-pyridyl)-5-[[4-(trifluoromethyl)triazol-1-yl]methyl]pyrazole-3-carboxamide] the “REC50 = EC50 (compound)/EC50” value was 0.91.
For Cc1cc2c(c(C(N)=O)c1NC(=O)c1cc(Cn3nnc(C(F)(F)F)n3)nn1-c1ncccc1Cl)OC(F)(F)O2 [Compound P24, N-(4-carbamoyl-2,2-difluoro-6-methyl-1,3-benzodioxol-5-yl)-2-(3-chloro-2-pyridyl)-5-[[5-(trifluoromethyl)tetrazol-2-yl]methyl]pyrazole-3-carboxamide], the “REC50 = EC50 (compound)/EC50” value was 0.34.

Tested on: not given
Assay: not given
Conditions: not given
Cc1cc2nn[nH]c2c(C(N)=O)c1NC(=O)c1cc(OCC(F)(F)F)nn1-c1ncccc1Cl showed a melting point of 142.2 to 160.3 °C.
Work on Cc1cc2cn[nH]c2c(C(N)=O)c1NC(=O)c1cc(Cn2nnc(C(F)(F)F)n2)nn1-c1ncccc1Cl yielded a melting point of 233 to 240 °C.
Work on Cc1nc2cc(C)c(NC(=O)c3cc(Br)nn3-c3ncccc3Cl)c(C(N)=O)c2o1 yielded a melting point greater than 250 °C.
Cc1cc2c(c(C(N)=O)c1NC(=O)c1cc(OCC(F)(F)F)nn1-c1ncccc1Cl)OC(F)(F)O2 gave a melting point of 240 to 245 °C.
For Cc1cc2nn[nH]c2c(C(N)=O)c1NC(=O)c1cc(OC(F)F)nn1-c1ncccc1Cl, the melting point was 147.5 to 161.2 °C.
